Earlier results, collected in patent US20110160154A1, “SUBSTITUTED PIPERAZINES” (Auspex Pharmaceuticals, Inc., priority 2007, published 2011).
pIC50: −log10 of the molar value.

Tests used:
[1] = background statement; ranolazine must be taken frequently
[2] = system: late sodium current (INa); conditions: literature value (Antzelevitch et al. 2004); read-out: IC50 for inhibition of late sodium current (INa)

COc1ccccc1OCC(O)CN1CCN(CC(=O)Nc2c(C)cccc2C)CC1 (centres unmarked) [ranolazine, N-(2,6-dimethyl-phenyl)-2-{4-[2-hydroxy-3-(2-methoxy-phenoxy)-propyl]-piperazin-1-yl}-acetamide]
half-life [1]: less than two | pIC50 [2]: 4.68 to 5.30
